Laboratory results reported in US8426408B2, “Pyrimidine inhibitors of kinases” (AbbVie Inc., priority 2009, dated 2013).
pKi: −log10 of the molar value.

Columns and labels:
Type in all cases: biochemical
Aurora B = target: T1, Aurora B (Homo sapiens, UniProt Q96GD4); test: Aurora B enzyme inhibition (time-resolved fluorescence, histone H3 peptide); details: 1 mM ATP
T1 construct: Active Aurora B enzyme (recombinant residues 1-344)
Outline: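 Recombinant Aurora B (residues 1-344) with GST-INCENP phosphorylated biotinylated histone H3 (1-21) peptide at 1 mM ATP in HEPES pH 7.4 with MgCl2, orthovanadate and Triton X-100 for 1 h. After EDTA stop, the phosphopeptide was detected by TR-FRET (Eu-cryptate anti-phospho-H3 / SA-APC, 665/615 nm ratio). IC50 from an exponential fit.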

Aurora A = target: T2, Aurora A (Homo sapiens, UniProt O14965); test: Aurora A enzyme inhibition (time-resolved fluorescence, STK substrate-2); details: 1 mM ATP
T2 sequence (O14965 1-403): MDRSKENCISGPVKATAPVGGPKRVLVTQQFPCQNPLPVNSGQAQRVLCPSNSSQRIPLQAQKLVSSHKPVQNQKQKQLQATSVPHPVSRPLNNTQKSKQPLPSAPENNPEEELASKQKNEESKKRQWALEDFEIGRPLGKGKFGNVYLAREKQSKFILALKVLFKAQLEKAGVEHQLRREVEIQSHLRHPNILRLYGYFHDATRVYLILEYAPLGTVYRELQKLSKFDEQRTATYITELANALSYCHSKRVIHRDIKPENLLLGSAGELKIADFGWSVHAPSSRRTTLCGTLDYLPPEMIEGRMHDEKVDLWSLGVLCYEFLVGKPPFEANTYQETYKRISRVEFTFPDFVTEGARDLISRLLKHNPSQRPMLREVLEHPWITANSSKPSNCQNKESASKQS
Outline: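 Active enzyme incubated 1 h with biotinylated STK substrate-2, 1 mM ATP and inhibitor in Hepes pH 7.4 with MgCl2, orthovanadate and Triton X-100. EDTA stop; phosphopeptide detected by Eu-cryptate anti-phospho-STK/SA-XL665 TR-FRET (665/615 nm ratio); IC50 by exponential fit.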

KDR = KDR (Homo sapiens, UniProt P35968); test: KDR HTRF in vitro kinase assay; design: purified enzyme (His6-KDR 789-1354, MW 63 kD); His6 (N); details: 1 mM ATP; read-out: KDR enzyme inhibition data (Ki)
Outline: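 His6-KDR 789-1354 (7 ng/well) with 0.5 μM biotinylated peptide substrate and 1 mM ATP in HEPES pH 7.1, MgCl2/MnCl2, 60 min at room temperature. EDTA-quenched, detected by streptavidin-XL-665 plus Eu-kryptate anti-phosphotyrosine HTRF after 3 h; IC50 from 620/665 nm ratio.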

Chain of KDR (P35968 789-1354): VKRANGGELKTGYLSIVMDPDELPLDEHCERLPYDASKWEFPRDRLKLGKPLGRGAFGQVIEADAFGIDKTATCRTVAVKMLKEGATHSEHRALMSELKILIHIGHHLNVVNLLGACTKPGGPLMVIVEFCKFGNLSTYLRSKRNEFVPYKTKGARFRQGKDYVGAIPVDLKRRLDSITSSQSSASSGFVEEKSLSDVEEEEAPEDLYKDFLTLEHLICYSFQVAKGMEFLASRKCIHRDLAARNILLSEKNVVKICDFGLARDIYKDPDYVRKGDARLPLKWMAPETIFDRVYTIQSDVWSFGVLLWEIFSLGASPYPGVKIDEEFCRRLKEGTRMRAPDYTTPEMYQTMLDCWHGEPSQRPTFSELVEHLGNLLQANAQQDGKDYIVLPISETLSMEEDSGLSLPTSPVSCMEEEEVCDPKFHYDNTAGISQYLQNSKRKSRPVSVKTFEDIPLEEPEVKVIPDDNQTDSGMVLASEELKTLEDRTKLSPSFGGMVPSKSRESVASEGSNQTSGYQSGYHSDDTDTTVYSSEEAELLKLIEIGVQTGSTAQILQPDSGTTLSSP
T1 sequence (Q96GD4 whole entry, the tested form may be a part): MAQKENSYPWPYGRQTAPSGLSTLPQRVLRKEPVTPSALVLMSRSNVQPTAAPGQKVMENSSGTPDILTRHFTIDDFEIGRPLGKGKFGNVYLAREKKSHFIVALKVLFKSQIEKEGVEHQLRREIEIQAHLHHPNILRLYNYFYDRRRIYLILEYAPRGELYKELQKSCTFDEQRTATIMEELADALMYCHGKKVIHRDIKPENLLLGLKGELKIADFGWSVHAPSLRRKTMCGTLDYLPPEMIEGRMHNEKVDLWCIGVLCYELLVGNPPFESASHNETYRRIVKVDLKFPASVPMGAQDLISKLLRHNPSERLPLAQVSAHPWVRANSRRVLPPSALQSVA
T1 sequence (Q9NQS7 826-918 partner limits assumed): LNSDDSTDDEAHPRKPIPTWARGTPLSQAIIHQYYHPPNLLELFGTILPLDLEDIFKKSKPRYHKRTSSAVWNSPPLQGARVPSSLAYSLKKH

Compound	pKi (Aurora B)	pKi (Aurora A)	pKi (KDR)
CCn1cc(Nc2ncc(C(F)(F)F)c(N[C@@H]3[C@H]4CC[C@H](C4)[C@@H]3C(N)=O)n2)cn1 [Example 80, (1R,2S,3R,4S)-3-{[2-[(1-ethyl-1H-pyrazol-4-yl)amino]-5-(trifluoromethyl)pyrimidin-4-yl]amino}bicyclo[2.2.1]heptane-2-carboxamide]	> 7.00	> 7.00	> 7.00
(1S,2S,3R,4R)-3-[(5-chloro-2-{[1-(1-methylpiperidin-4-yl)-1H-pyrazol-4-yl]amino}pyrimidin-4-yl)amino]bicyclo[2.2.1]hept-5-ene-2-carboxamide and (1R,2R,3S,4S)-3-[(5-chloro-2-{[1-(1-methylpiperidin-4-yl)-1H-pyrazol-4-yl]amino}pyrimidin-4-yl)amino]bicyclo[2.2.1]hept-5-ene-2-carboxamide [Example 40]	> 7.00	> 7.00	> 7.00
(1S,2S,3R,4R)-3-[(5-chloro-2-{[1-(2-morpholin-4-ylethyl)-1H-pyrazol-4-yl]amino}pyrimidin-4-yl)amino]bicyclo[2.2.1]hept-5-ene-2-carboxamide and (1R,2R,3S,4S)-3-[(5-chloro-2-{[1-(2-morpholin-4-ylethyl)-1H-pyrazol-4-yl]amino}pyrimidin-4-yl)amino]bicyclo[2.2.1]hept-5-ene-2-carboxamide [Example 37]	> 7.00	> 7.00	> 7.00
(1S,2S,3R,4R)-3-{[5-chloro-2-({1-[2-(4-methylpiperazin-1-yl)ethyl]-1H-pyrazol-4-yl}amino)pyrimidin-4-yl]amino}bicyclo[2.2.1]hept-5-ene-2-carboxamide and (1R,2R,3S,4S)-3-{[5-chloro-2-({1-[2-(4-methylpiperazin-1-yl)ethyl]-1H-pyrazol-4-yl}amino)pyrimidin-4-yl]amino}bicyclo[2.2.1]hept-5-ene-2-carboxamide [Example 46]	> 7.00	> 7.00	> 7.00

Other lines, results leading:

pKi (Aurora B)	pKi (Aurora A)	pKi (KDR)	Compound
> 7.00	> 7.00	> 7.00	NC(=O)[C@@H]1[C@H](Nc2nc(Nc3cnn(C4CNC4)c3)ncc2Cl)[C@H]2C=C[C@@H]1C2 [Example 81, (1S,2S,3R,4R)-3-({2-[(1-azetidin-3-yl-1H-pyrazol-4-yl)amino]-5-chloropyrimidin-4-yl}amino)bicyclo[2.2.1]hept-5-ene-2-carboxamide]
> 7.00	> 7.00	> 7.00	NC(=O)[C@@H]1[C@H](Nc2nc(Nc3cnn(C4CCNCC4)c3)ncc2Cl)[C@H]2C=C[C@@H]1C2 [Example 82, (1S,2S,3R,4R)-3-({5-chloro-2-[(1-piperidin-4-yl-1H-pyrazol-4-yl)amino]pyrimidin-4-yl}amino)bicyclo[2.2.1]hept-5-ene-2-carboxamide]
> 7.00	> 7.00	> 7.00	NC(=O)[C@@H]1[C@H](Nc2nc(Nc3cnn([C@H]4CCCNC4)c3)ncc2Cl)[C@H]2C=C[C@@H]1C2 [Example 83, (1S,2S,3R,4R)-3-{[5-chloro-2-({1-[(3S)-piperidin-3-yl]-1H-pyrazol-4-yl}amino)pyrimidin-4-yl]amino}bicyclo[2.2.1]hept-5-ene-2-carboxamide]
> 7.00	> 7.00	> 7.00	NC(=O)[C@@H]1[C@H](Nc2nc(Nc3cnn([C@@H]4CCCNC4)c3)ncc2Cl)[C@H]2C=C[C@@H]1C2 [Example 84, (1S,2S,3R,4R)-3-{[5-chloro-2-({1-[(3R)-piperidin-3-yl]-1H-pyrazol-4-yl}amino)pyrimidin-4-yl]amino}bicyclo[2.2.1]hept-5-ene-2-carboxamide]
> 7.00	> 7.00	> 7.00	CC(=O)NCC(=O)N1CCC(n2cc(Nc3ncc(Cl)c(N[C@H]4[C@@H](C(N)=O)[C@@H]5C=C[C@H]4C5)n3)cn2)CC1 [Example 85, (1S,2S,3R,4R)-3-{[2-({1-[1-(N-acetylglycyl)piperidin-4-yl]-1H-pyrazol-4-yl}amino)-5-chloropyrimidin-4-yl]amino}bicyclo[2.2.1]hept-5-ene-2-carboxamide]
